pEC50: −log10 of the molar value. Read-outs that look alike come from different tables or passages of the source. * marks the point of attachment. Palmitoyl = CCCCCCCCCCCCCCCC(=O)*
Molecular target: T1, human ferroportin (Homo sapiens, UniProt Q9NP59)
T1 sequence (Q9NP59 1-571): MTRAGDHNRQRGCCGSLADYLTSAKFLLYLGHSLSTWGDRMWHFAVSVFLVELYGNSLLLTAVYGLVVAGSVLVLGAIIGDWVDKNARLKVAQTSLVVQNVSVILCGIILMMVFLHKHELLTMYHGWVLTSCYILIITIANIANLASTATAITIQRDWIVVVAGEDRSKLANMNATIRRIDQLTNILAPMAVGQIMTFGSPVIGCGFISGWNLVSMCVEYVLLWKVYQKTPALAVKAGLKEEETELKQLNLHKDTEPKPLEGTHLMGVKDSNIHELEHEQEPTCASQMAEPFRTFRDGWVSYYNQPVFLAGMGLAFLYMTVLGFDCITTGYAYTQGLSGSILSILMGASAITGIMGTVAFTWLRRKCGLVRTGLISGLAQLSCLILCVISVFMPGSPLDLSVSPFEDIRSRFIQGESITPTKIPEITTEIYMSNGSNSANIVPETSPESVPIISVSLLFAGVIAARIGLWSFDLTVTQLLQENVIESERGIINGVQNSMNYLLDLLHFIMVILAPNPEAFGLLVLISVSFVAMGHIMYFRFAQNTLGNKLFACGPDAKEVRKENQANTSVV
Type: cell-based
Conditions: for % Activity At 1 uM: at 1 uM peptide, monomers and disulphide-linked dimers
From the text: The cDNA encoding the human ferroportin (SLC40A1) was cloned from a cDNA clone from Origene (NM_014585). The DNA encoding the ferroportin was amplified by PCR using primers also encoding terminal restriction sites for subcloning, but without the termination codon. The ferroportin receptor was subcloned into a mammalian GFP expression vector containing a neomycin (G418) resistance marker in such that the reading frame of the ferroportin was fused in frame with the GFP protein. The fidelity of the DNA encoding the protein was confirmed by DNA sequencing. HEK293 cells were used for transfection of the ferroportin-GFP receptor expression plasmid. The cells were grown according to standard protocol in growth medium and transfected with the plasmids using Lipofectamine (manufacturer's protocol, Invitrogen). […] The cells were propagated and frozen in aliquots.
A retro inverse peptide is a peptide with a reversed sequence in all D amino acids. […] The EC50 of these reference compounds for ferroportin degradation was determined according to the activity assay described above.

[1] = Hepcidin analog peptides, read-out: Potency EC50
[2] = cysteine replacement scan of Mini-Hepcidin derivatives
[3] = read-out: EC50 (nM) (n = 3), in vitro activity as in Example 2, peptide monomers and dimers dimerized through a single disulphide linkage, n = 3
[4] = read-out: EC50 (nM) (n > 3), alanine scan of Compound 18
[5] = read-out: EC50 (n = 3), cells printed in μM, in vitro activity as in Example 2, peptide monomers and dimers dimerized through a single disulphide linkage, n = 3
[6] = read-out: EC50 (n > 3), alanine scan of Compound 1

Substance	Potency EC50 (nM) (Hepcidin analog peptides)	pEC50 [1]	further results
Isovaleric acid-DTHFPSIIF-NH2 [Compound 290]	Inactive	–	–
H-DTHFPICIFGPRAKGWVCM-NH2 (cysteine pairing not given here) [Compound 28]	–	7.06	–
H-DTHFPIAICI-NH2 [Compound 274]	Inactive	–	EC50 (nM) (n > 3) [2]: Not active
H-DTHFPCISFGPRSKGWVCK-NH2 (cysteine pairing not given here) [Compound 101]	–	< 6.00	–
H-DTHCPIAIF-NH2 [Compound 277]	Inactive	–	EC50 (nM) (n > 3) [2]: Not active
H-VDTHFPCIKFGPRSKGWVCK-NH2 (cysteine pairing not given here) [Compound 164]	–	6.84	–
H-DTHFPCIIFGPRSKGWVCM-NH2 (cysteine pairing not given here) [Compound 21]	–	7.34	–
Isovaleric acid-HFPCIIFGPRSKGWVCK-NH2 [Compound 100]	Inactive	–	–
Isovaleric acid-DTHFPCIKF-NH2 [Compound 291]	–	–	% Activity At 1 uM: 100%
H-DTHFPCIRFGPRSRGWRCK-NH2 (cysteine pairing not given here) [Compound 82]	–	< 6.00	–
H-DTHFPIAIFGPRSKGWVAM-NH2 [Compound 69]	Inactive	–	EC50 (nM) (n > 3) (alanine scan of Compound 18): Inactive
Palmitoyl-DTHFPCIKFGPRSKGWVCK-NH2 (cysteine pairing not given here) [Compound 216]	–	< 6.00	–
Hy-LTHFPCIIF-NH2 [Compound 299]	–	–	% Activity At 1 uM: 64%; EC50 [3]: > 300 nM
H-DTAFPCIIF-NH2 [Compound 283]	–	6.13	EC50 (read-out: EC50 (nM) (n > 3), alanine scan of Compound 1): 739 nM
H-DTHFPICIFGPRAKGWVCM-NH2 (cysteine pairing not given here) [Compound 16]	–	7.06	EC50 [4]: 88 nM
H-DTHFPCIVF-NH2 [Compound 307]	–	–	% Activity At 1 uM: 75%; EC50 [3]: > 300 nM
H-DTHFPCIEK-NH2 [Compound 310]	–	–	% Activity At 1 uM: 0%; EC50 [5]: > 1000 nM

Substance	Potency EC50 (nM) (Hepcidin analog peptides)	pEC50 [1]	further results
H-DTHFPCIIR-NH2 [Compound 305]	–	–	% Activity At 1 uM: 62%; EC50 [5]: > 1000 nM
Isovaleric acid-THFPCIIFGPRSKGWVCK-NH2 [Compound 98]	Inactive	–	–
H-DTHFGCIIFGPRSKGWVCK-NH2 (cysteine pairing not given here) [Compound 123]	Inactive	–	–
H-DTHFPICIFAPRSKGWVCM-NH2 (cysteine pairing not given here) [Compound 22]	–	5.03	EC50 [4]: 9430 nM
Hy-DTHF-[Sarc]-CIIFGPRSKGWVCK-NH2 [Compound 127]	Inactive	–	–
H-DTHFACIIF-NH2 [Compound 280]	–	< 6.00	pEC50 [6]: < 6.00
H-DTHFPCIEF-NH2 [Compound 287]	–	< 6.00	–
Hy-DTHFPCIIF-NH2 [Compound 1]	–	–	% Activity At 1 uM: 92%
H-DTHFKCIIFGPRSKGWVCK-NH2 (cysteine pairing not given here) [Compound 131]	Inactive	–	–
H-DTHFRCIIFGPRSKGWVCK-NH2 (cysteine pairing not given here) [Compound 125]	Inactive	–	–
H-DTHFPIAIFICI-NH2 [Compound 272]	Inactive	–	EC50 (nM) (n > 3) [2]: Not active
(Isovaleric acid-DTHFPCIKF-NH2)2 [Compound 326]	–	–	% Activity At 1 uM: 100%
H-DTHFPCIIA-NH2 [Compound 278]	–	< 6.00	pEC50 [6]: < 6.00
Hy-DTHF-[β-Ala]-CIIFGPRSKGWVCK-NH2 [Compound 129]	Inactive	–	–
H-DTHFPCIFF-NH2 [Compound 56]	–	6.36	–
H-DTHFPCIIFGPRSRGWRCK-NH2 (cysteine pairing not given here) [Compound 80]	–	< 6.00	–
H-ATHFPICIFGPRSKGWVCM-NH2 (cysteine pairing not given here) [Compound 33]	–	6.74	EC50 [4]: 184 nM

— patent US9822157B2 (priority 2013, dated 2017)
